Experimental data reported in US8076487B2, “Pyridone derivative and herbicide” (Kumiai Chemical Industry Co., Ltd., priority 2006, dated 2011).

What was measured:
Format in all cases: in vivo
[1] = tested on: Japanese bulrush (Scirpus juncoides Roxb.); assay: Test Example 1: herbicidal effect by soil application to paddy field; details: paddy field soil application; active ingredient 1,000 g per 1 hectare; wettable powder added dropwise to water surface the day after sowing; examined on the 21st day after application
Outline: (§1)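 Under greenhouse conditions, seeds sown on puddled paddy soil in 100 cm2 pots under 3 cm of standing water received the test compound; injury was assessed with a standard scoring scheme three weeks (day 21) after treatment.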

[2] = tested on: early watergrass (Echinochloa oryzicola Vasing); assay: as above; details: paddy field soil application; active ingredient 1,000 g per 1 hectare; wettable powder added dropwise to water surface the day after sowing; examined on the 21st day after application
Outline: as §1

[3] = tested on: heartshape false pickerelweed (Monochoria vaginalis (Burm.f.) C.Presl); assay: as above; details: paddy field soil application; active ingredient 1,000 g per 1 hectare; wettable powder added dropwise to water surface the day after sowing; examined on the 21st day after application
Outline: as §1

[4] = tested on: barnyardgrass (Echinochloa crus-galli (L.) P. Beauv. var. crus-galli); assay: Test Example 2: herbicidal effect by soil application to upland field; details: soil surface spray, upland field soil, 1,000 g active ingredient per hectare, 21st day after application
Outline: (§2)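 Greenhouse pot assay with field soil. Freshly sown seeds were covered with soil, then the surface was sprayed with diluted wettable powder: 1,000 g a.i./ha, 1,000 L/ha. Herbicidal effect scored at day 21 by standard criteria.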

[5] = tested on: green foxtail (Setaria viridis (L.) P. Beauv.); assay: as above; details: soil surface spray, upland field soil, 1,000 g active ingredient per hectare, 21st day after application
Outline: as §2

[6] = tested on: slender amaranth (Amaranthus viridis L.); assay: as above; details: soil surface spray, upland field soil, 1,000 g active ingredient per hectare, 21st day after application
Outline: as §2

[7] = tested on: velvetleaf (Abutilon theophrasti medicus); assay: as above; details: soil surface spray, upland field soil, 1,000 g active ingredient per hectare, 21st day after application
Outline: as §2

[8] = tested on: barnyardgrass (Echinochloa crus-galli (L.) P. Beauv. var. crus-galli); assay: Test Example 3: herbicidal effect by application to upland field (foliage treatment); details: foliage treatment, 1,000 g active ingredient per 1 hectare, 14th day after application, greenhouse
Outline: (§3)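 Dose 1,000 g active ingredient/ha, sprayed as diluted wettable powder over entire plants two weeks after sowing in field soil. Kept in greenhouse; herbicidal effect graded on a standard scale on day 14.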

[9] = tested on: green foxtail (Setaria viridis (L.) P. Beauv.); assay: as above; details: foliage treatment, 1,000 g active ingredient per 1 hectare, 14th day after application, greenhouse
Outline: as §3

[10] = tested on: slender amaranth (Amaranthus viridis L.); assay: as above; details: foliage treatment, 1,000 g active ingredient per 1 hectare, 14th day after application, greenhouse
Outline: as §3

[11] = tested on: velvetleaf (Abutilon theophrasti medicus); assay: as above; details: foliage treatment, 1,000 g active ingredient per 1 hectare, 14th day after application, greenhouse
Outline: as §3

| SMILES | herbicidal effect, Scirpus juncoides Roxb. [1] | herbicidal effect, Echinochloa oryzicola Vasing [2] | herbicidal effect, Monochoria vaginalis (Burm. f.) C. Presl [3] | herbicidal effect (index), Barnyardgrass [4] | herbicidal effect (index), Green Foxtail [5] | herbicidal effect (index), Slender Amaranth [6] | herbicidal effect (index), Velvetleaf [7] | herbicidal effect, Barnyardgrass [8] | herbicidal effect, Green Foxtail [9] | herbicidal effect, Slender Amaranth [10] | herbicidal effect, Velvetleaf [11] |
| --- | --- | --- | --- | --- | --- | --- | --- | --- | --- | --- | --- |
| CCCS(=O)(=O)Oc1c(C(=O)c2ccc(C(F)(F)F)n(-c3ccc(OC)c(F)c3)c2=O)cnn1C [IV-93] | 5 (90% or more of herbicidal effect and crop phytotoxicity) | 5 (90% or more of herbicidal effect and crop phytotoxicity) | 5 (90% or more of herbicidal effect and crop phytotoxicity) | 5 (90% or more of herbicidal effect and crop phytotoxicity) | 4 (70 to less than 90% of herbicidal effect and crop phytotoxicity) | 5 (90% or more of herbicidal effect and crop phytotoxicity) | 5 (90% or more of herbicidal effect and crop phytotoxicity) | 4 (70 to less than 90% of herbicidal effect and crop phytotoxicity) | 4 (70 to less than 90% of herbicidal effect and crop phytotoxicity) | 5 (90% or more of herbicidal effect and crop phytotoxicity) | 4 (70 to less than 90% of herbicidal effect and crop phytotoxicity) |
| COCc1cc(-n2c(C(F)(F)F)ccc(C(=O)c3cnn(C)c3O)c2=O)ccc1F [IV-95] | 5 (90% or more of herbicidal effect and crop phytotoxicity) | 5 (90% or more of herbicidal effect and crop phytotoxicity) | 5 (90% or more of herbicidal effect and crop phytotoxicity) | 5 (90% or more of herbicidal effect and crop phytotoxicity) | 5 (90% or more of herbicidal effect and crop phytotoxicity) | 5 (90% or more of herbicidal effect and crop phytotoxicity) | 5 (90% or more of herbicidal effect and crop phytotoxicity) | 5 (90% or more of herbicidal effect and crop phytotoxicity) | 5 (90% or more of herbicidal effect and crop phytotoxicity) | 5 (90% or more of herbicidal effect and crop phytotoxicity) | 5 (90% or more of herbicidal effect and crop phytotoxicity) |
| CCCS(=O)(=O)Oc1c(C(=O)c2ccc(C(F)(F)F)n(-c3ccc(F)c(COC)c3)c2=O)cnn1C(C)C [IV-96] | 4 (70 to less than 90% of herbicidal effect and crop phytotoxicity) | 5 (90% or more of herbicidal effect and crop phytotoxicity) | 5 (90% or more of herbicidal effect and crop phytotoxicity) | 4 (70 to less than 90% of herbicidal effect and crop phytotoxicity) | 3 (50 to less than 70% of herbicidal effect and crop phytotoxicity) | 4 (70 to less than 90% of herbicidal effect and crop phytotoxicity) | 5 (90% or more of herbicidal effect and crop phytotoxicity) | 3 (50 to less than 70% of herbicidal effect and crop phytotoxicity) | 5 (90% or more of herbicidal effect and crop phytotoxicity) | 4 (70 to less than 90% of herbicidal effect and crop phytotoxicity) | 5 (90% or more of herbicidal effect and crop phytotoxicity) |
